US10519177B2, “Heterocyclic compounds and uses thereof” (Plexxikon Inc., priority 2013, dated 2019)
Read-outs that look alike come from different tables or passages of the source.

What was measured:
MV-4-11 cells = assay: Oncology cell growth assay MV-4-11 (CellTiter Glo); assay type: cell-based; conditions: Homo sapiens, MV4-11, 72 h, read-out: Cell activity (IC50 μM) MV-4-11 3d-Growth
Summary of the method: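 Growth read by CellTiter Glo luminescence after 72 h compound treatment of MLL-AF4-bearing MV-4-11 cells (3000/well). Titration: 8 points, 1:3 steps, maximum 10 μM, 0.2% DMSO final. Data normalized to DMSO wells, four-parameter fit gives pIC50.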

BRD4-BD12 (1-477) = BRD4-BD12 (1-477) (Homo sapiens (Human), UniProt O60885); assay: Alphascreen binding assay BRD4-BD12; conditions: BRD4(1 2) H4; read-out: Biochemical activity (IC50 μM) BRD4(1 2) H4
Summary of the method: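 In this competition format, compounds displace a biotinylated tetra-acetyl H4 peptide from E. coli-expressed human BRD4 bromodomain constructs captured on nickel chelate beads. The reaction runs at pH 7.5 with 2 mM DTT and detergent for 1 h at room temperature before a 30 min bead step.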

bromodomain = assay: at least one of the bromodomain cell assays of Example 57; assay type: cell-based; conditions: at least one of the bromodomain cell assays described in Example 57; read-out: IC50 in at least one of the bromodomain cell assays

Cc1noc(C)c1-c1cnc2c(-c3ccc(C(=O)O)c(F)c3F)cn(CC3(F)CCCCC3)c2c1 [P-0476, 4-[6-(3,5-dimethylisoxazol-4-yl)-1-[(1-fluorocyclohexyl)methyl]pyrrolo[3,2-b]pyridin-3-yl]-2,3-difluoro-benzoic acid]
IC50 (MV-4-11 cells; MV-4-11, 3d growth): < 1 µM | IC50 (BRD4-BD12 (1-477)): < 1 µM | IC50 (bromodomain): < 10 µM

Cc1noc(C)c1-c1cnc2c(-c3ccc(N)nc3)cn(CC3CCC(F)(F)CC3)c2c1 [P-0401, 5-[1-[(4,4-difluorocyclohexyl)methyl]-6-(3,5-dimethylisoxazol-4-yl)pyrrolo[3,2-b]pyridin-3-yl]pyridin-2-amine]
IC50 (MV-4-11 cells): < 1 µM | IC50 (BRD4-BD12 (1-477)): < 1 µM | IC50 (bromodomain): < 10 µM

[2H]C([2H])(C1CCC(F)(F)CC1)n1cc(-c2ccnc(C3CC3)c2)c2ncc(-c3c(C)noc3C)cc21 [P-0341, 4-[3-(2-cyclopropyl-4-pyridyl)-1-[dideuterio-(4,4-difluorocyclohexyl)methyl]pyrrolo[3,2-b]pyridin-6-yl]-3,5-dimethyl-isoxazole]
IC50 (MV-4-11 cells): < 1 µM | IC50 (BRD4-BD12 (1-477)): < 1 µM | IC50 (bromodomain): < 10 µM

Cc1noc(C)c1-c1cnc2c(-c3ccc4[nH]c(=O)[nH]c4c3)cn(CC3(F)CCCCC3)c2c1 [P-0498, 5-[6-(3,5-dimethylisoxazol-4-yl)-1-[(1-fluorocyclohexyl)methyl]pyrrolo[3,2-b]pyridin-3-yl]-1,3-dihydrobenzimidazol-2-one]
IC50 (MV-4-11 cells; MV-4-11, 3d growth): < 1 µM | IC50 (BRD4-BD12 (1-477)): < 1 µM | IC50 (bromodomain): < 10 µM

COC(=O)c1ccc(-c2cn(CC3CC4(CCC4)C3)c3cc(-c4c(C)noc4C)cnc23)cc1 [P-0602, methyl 4-[6-(3,5-dimethylisoxazol-4-yl)-1-(spiro[3.3]heptan-6-ylmethyl)pyrrolo[3,2-b]pyridin-3-yl]benzoate]
IC50 (MV-4-11 cells; MV-4-11, 3d growth): < 1 µM | IC50 (BRD4-BD12 (1-477)): < 1 µM | IC50 (bromodomain): < 10 µM

Cc1noc(C)c1-c1cnc2c(-c3ccc(C(=O)O)nc3)cn(CC3(F)CCCCC3)c2c1 [P-0455, 5-[6-(3,5-dimethylisoxazol-4-yl)-1-[(1-fluorocyclohexyl)methyl]pyrrolo[3,2-b]pyridin-3-yl]pyridine-2-carboxlic acid]
IC50 (MV-4-11 cells; MV-4-11, 3d growth): < 1 µM | IC50 (BRD4-BD12 (1-477)): < 1 µM | IC50 (bromodomain): < 10 µM

Cc1noc(C)c1-c1cnc2c(-c3ccc(B(O)O)cc3)cn(CC3CCC(F)(F)CC3)c2c1 [P-0596, [4-[1-[(4,4-difluorocyclohexyl)methyl]-6-(3,5-dimethylisoxazol-4-yl)pyrrolo[3,2-b]pyridin-3-yl]phenyl]boronic acid]
IC50 (MV-4-11 cells; MV-4-11, 3d growth): < 1 µM | IC50 (BRD4-BD12 (1-477)): < 1 µM | IC50 (bromodomain): < 10 µM

Cc1noc(C)c1-c1cnc2c(-c3ccc(C=O)cc3)cn(CC3CCC(F)(F)CC3)c2c1 [P-0600, 4-[1-[(4,4-difluorocyclohexyl)methyl]-6-(3,5-dimethylisoxazol-4-yl)pyrrolo[3,2-b]pyridin-3-yl]benzaldehyde]
IC50 (MV-4-11 cells; MV-4-11, 3d growth): < 1 µM | IC50 (BRD4-BD12 (1-477)): < 1 µM | IC50 (bromodomain): < 10 µM

CONC(=O)c1ccc(-c2cn(CC3(F)CCCCC3)c3cc(-c4c(C)noc4C)cnc23)cc1 [P-0497, 4-[6-(3,5-dimethylisoxazol-4-yl)-1-[(1-fluorocyclohexyl)methyl]pyrrolo[3,2-b]pyridin-3-yl]-N-methoxy-benzamide]
IC50 (MV-4-11 cells; MV-4-11, 3d growth): < 1 µM | IC50 (BRD4-BD12 (1-477)): < 1 µM | IC50 (bromodomain): < 10 µM

CC[C@H](c1ccccc1)n1cc(-c2ccc(C(=O)O)cc2)c2ncc(-c3c(C)noc3C)cc21 [P-0570, 4-[6-(3,5-dimethylisoxazol-4-yl)-1-[(1R)-1-phenylpropyl]pyrrolo[3,2-b]pyridin-3-yl]benzoic acid]
IC50 (MV-4-11 cells; MV-4-11, 3d growth): < 1 µM | IC50 (BRD4-BD12 (1-477)): < 1 µM | IC50 (bromodomain): < 10 µM

Cc1ccc(-c2cn(CC3CCC(F)(F)CC3)c3cc(-c4c(C)noc4C)cnc23)cc1 [P-0604, 4-[1-[(4,4-difluorocyclohexyl)methyl]-3-(p-tolyl)pyrrolo[3,2-b]oyridin-6-yl]-3,5-dimethyl-isoxazole]
IC50 (MV-4-11 cells; MV-4-11, 3d growth): < 1 µM | IC50 (BRD4-BD12 (1-477)): < 1 µM | IC50 (bromodomain): < 10 µM

COc1ncc(-c2cn(CC3CCC(F)(F)CC3)c3cc(-c4c(C)noc4C)cnc23)cn1 [P-0391, 4-[1-[(4,4-difluorocyclohexyl)methyl]-3-(2-methoxypyrimidin-5-yl)pyrrolo[3,2-b]pyridin-6-yl]-3,5-dimethyl-isoxazole]
IC50 (MV-4-11 cells): < 1 µM | IC50 (BRD4-BD12 (1-477)): < 1 µM | IC50 (bromodomain): < 10 µM

Cc1noc(C)c1-c1cnc2c(-c3cnn(CC(F)(F)F)c3)cn(CC3CCC(F)(F)CC3)c2c1 [P-0253, 4-[1[(4,4-difluorocyclohexyl)methyl]-3-[1-(2,2,2-trifluoroethyl)pyrazol-4-yl]pyrrolo[3,2-b]pyridin-6-yl]-3,5-dimethyl-isoxazole]
IC50 (MV-4-11 cells): < 1 µM | IC50 (BRD4-BD12 (1-477)): < 1 µM | IC50 (bromodomain): < 10 µM

Cc1noc(C)c1-c1cnc2c(-c3ccc(C(=O)O)cc3)cn(CC3CCCCC3)c2c1 [P-0554, 4-[1-(cyclohexylmethyl)-6-(3,5-dimethylisoxazol-4-yl)pyrrolo[3,2-b]pyridin-3-yl]benzoic acid]
IC50 (MV-4-11 cells; MV-4-11, 3d growth): < 1 µM | IC50 (BRD4-BD12 (1-477)): < 1 µM | IC50 (bromodomain): < 10 µM

Cc1noc(C)c1-c1cnc2c(-c3cccc(CC(=O)O)c3)cn(CC3CCC(F)(F)CC3)c2c1 [P-0411, 2-[3-[1-[(4,4-difluorocyclohexyl)methyl]-6-(3,5-dimethylisoxazol-4-yl)pyrrolo[3,2-b]pyridin-3-yl]phenyl]acetic acid]
IC50 (MV-4-11 cells): < 1 µM | IC50 (BRD4-BD12 (1-477)): < 1 µM | IC50 (bromodomain): < 10 µM

Cc1noc(C)c1-c1cnc2c(-c3ccc(C(=O)O)cc3)cn(CC3(F)CCC(F)(F)CC3)c2c1 [P-0382, 4-[6-(3,5-dimethylisoxazol-4-yl)-1-[(1,4,4-trifluorocyclohexyl)methyl]pyrrolo[3,2-b]pyridin-3-yl]benzoic acid]
IC50 (MV-4-11 cells): < 1 µM | IC50 (BRD4-BD12 (1-477)): < 1 µM | IC50 (bromodomain): < 10 µM

Cc1noc(C)c1-c1cnc2c(-c3ccc(S(N)(=O)=O)cc3)cn(CC3(F)CCCCC3)c2c1 [P-0379, 4-[6-(3,5-dimethylisoxazol-4-yl)-1-[(1-fluorocyclohexyl)methyl]pyrrolo[3,2-b]pyridin-3-yl]benzenesulfonamide]
IC50 (MV-4-11 cells): < 1 µM | IC50 (BRD4-BD12 (1-477)): < 1 µM | IC50 (bromodomain): < 10 µM

Cc1noc(C)c1-c1cnc2c(-c3ccc(CC(=O)O)cc3)cn(CC3(F)CCCCC3)c2c1 [P-0383, 2-[4-[6-(3,5-dimethylisoxazol-4-yl)-1-[(1-fluorocyclohexyl)methyl]pyrrolo[3,2-b]pyridin-3-yl]phenyl]acetic acid]
IC50 (MV-4-11 cells): < 1 µM | IC50 (BRD4-BD12 (1-477)): < 1 µM | IC50 (bromodomain): < 10 µM

Cc1noc(C)c1-c1cnc2c(-c3ccc(C4(C(=O)O)CC4)cc3)cn(CC3CCC(F)(F)CC3)c2c1 [P-0412, 1-[4-[1-[(4,4-difluorocyclohexyl)methyl]-6-(3,5-dimethylisoxazol-4-yl)pyrrolo[3,2-b]pyridin-3-yl]phenyl]cyclopropanecarboxylic acid]
IC50 (MV-4-11 cells): < 1 µM | IC50 (BRD4-BD12 (1-477)): < 1 µM | IC50 (bromodomain): < 10 µM

Cc1noc(C)c1-c1cnc2c(-c3cccc(NS(C)(=O)=O)c3)cn(CC3(F)CCCCC3)c2c1 [P-0492, N-[3-0[6-(3,5-dimethylisoxazol-4-yl)-1-[(1-fluorocyclohexyl)methyl]pyrrolo[3,2-b]pyridin-3-yl]phenyl]methanesulfonamide]
IC50 (MV-4-11 cells; MV-4-11, 3d growth): < 1 µM | IC50 (BRD4-BD12 (1-477)): < 1 µM | IC50 (bromodomain): < 10 µM

Cc1noc(C)c1-c1cnc2c(-c3cccc(S(=O)(=O)NCCO)c3)cn(CC3(F)CCCCC3)c2c1 [P-0491, 3-[6-(3,5-dimethylisoxazol-4-yl)-1-[(1-fluorocyclohexyl)methyl]pyrrolo[3,2-b]pyridin-3-yl]-N-(2-hydroxyethyl)benzenesulfonamide]
IC50 (MV-4-11 cells; MV-4-11, 3d growth): < 1 µM | IC50 (BRD4-BD12 (1-477)): < 1 µM | IC50 (bromodomain): < 10 µM

Cc1noc(C)c1-c1cnc2c(-c3ccc(C(=O)OC(C)(C)C)cc3)cn(C(CC#N)C3CCCC3)c2c1 (stereo not drawn) [P-0526, tert-butyl 4-[1-(2-cyano-1-cyclopentyl-ethyl)-6-(3,5-dimethylisoxazol-4-yl)pyrrolo[3,2-b]pyridin-3-yl]benzoate]
IC50 (MV-4-11 cells; MV-4-11, 3d growth): < 1 µM | IC50 (BRD4-BD12 (1-477)): < 1 µM | IC50 (bromodomain): < 10 µM

Cc1noc(C)c1-c1cnc2c(-c3cnn(CC(F)(F)F)c3)cn(CC3CCCCC3)c2c1 [P-0553, 4-[1-(cyclohexylmethyl)-3-[1-(2,2,2-trifluoroethyl)pyrazol-4-yl]pyrrolo[3,2-b]pyridin-6-yl]-3,5-dimethyl-isoxazole]
IC50 (MV-4-11 cells; MV-4-11, 3d growth): < 1 µM | IC50 (BRD4-BD12 (1-477)): < 1 µM | IC50 (bromodomain): < 10 µM

[2H]C([2H])(C1CCC(F)(F)CC1)n1cc(-c2cnn(CC)c2)c2ncc(-c3c(C)noc3C)cc21 [P-0336, 4-[1-[dideuterio-(4,4-difluorocyclohexyl)methyl]-3-(1-ethylpyrazol-4-yl)pyrrolo[3,2-b]pyridin-6-yl]-3,5-dimethyl-isoxazole]
IC50 (MV-4-11 cells): < 1 µM | IC50 (BRD4-BD12 (1-477)): < 1 µM | IC50 (bromodomain): < 10 µM

[2H]C([2H])(C1CCC(F)(F)CC1)n1ccc2ncc(-c3c(C)nnn3CC)cc21 [P-0360, 1-[dideuterio-(4,4-difluorocyclohexyl)methyl]-6-(3-ethyl-5-methyl-triazol-4-yl)pyrrolo[3,2-b]pyridine]
IC50 (MV-4-11 cells): 10 to 200 µM | IC50 (BRD4-BD12 (1-477)): 1 to 10 µM | IC50 (bromodomain): < 10 µM

Cc1cc(-c2cnc3c(-c4cnn(CC(F)(F)F)c4)cn(CC4CCC(F)(F)CC4)c3c2)c[nH]c1=O [P-0481, 5-[1-[(4,4-difluorocyclohexyl)methyl]-3-[1-(2,2,2-trifluoroethyl)pyrazol-4-yl]pyrrolo[3,2-b]pyridin-6-yl]-3-methyl-1H-pyridin-2-one]
IC50 (MV-4-11 cells; MV-4-11, 3d growth): < 1 µM | IC50 (BRD4-BD12 (1-477)): < 1 µM | IC50 (bromodomain): < 10 µM
